ChEMBL document CHEMBL1201862, “PubChem BioAssay data set” (2004)
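Tested at 5 concentrations; 48 h exposure; 96-well plates; endpoints linearly interpolated, else capped at highest concentration. GI50 is the concentration that inhibits growth by half.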 The source made the active and inactive calls. No stated cut-off is given here; in the data, active = GI50 up to about 1.1 µM and inactive = higher.

Columns and labels:
Experiment in all cases: NCI tumour cell line growth inhibition, 48 h
[1] = test system: MOLT-4
[2] = test system: HCT-116
[3] = test system: MDA-MB-435
[4] = test system: NCI-H522
[5] = test system: SF-268
[6] = test system: PC-3
[7] = test system: UO-31
[8] = test system: SK-MEL-5
[9] = test system: HOP-92
[10] = test system: SW-620
[11] = test system: A549
[12] = test system: ACHN
[13] = test system: SF-539
[14] = test system: SN12C
[15] = test system: SK-OV-3
[16] = test system: EKVX
[17] = test system: OVCAR-8
[18] = test system: IGROV-1
[19] = test system: HL-60
[20] = test system: 786-0
[21] = test system: MDA-MB-231
[22] = test system: NCI-H226
[23] = test system: SF-295
[24] = test system: SNB-19
[25] = test system: OVCAR-3
[26] = test system: BT-549
[27] = test system: DU-145
[28] = test system: NCI-H23
[29] = test system: CCRF-CEM
[30] = test system: OVCAR-4
[31] = test system: OVCAR-5
[32] = test system: HCT-15
[33] = test system: Hs-578T
[34] = test system: M14
[35] = test system: NCI/ADR-RES
[36] = test system: COLO 205
[37] = test system: U-251
[38] = test system: K562
[39] = test system: TK-10
[40] = test system: Malme-3M
[41] = test system: LOX IMVI
[42] = test system: RXF 393
[43] = test system: T47D
[44] = test system: NCI-H460
[45] = test system: SNB-75
[46] = test system: SR
[47] = test system: SK-MEL-28
[48] = test system: SK-MEL-2
[49] = test system: HT-29
[50] = test system: UACC-257
[51] = test system: KM12
[52] = test system: RPMI-8226
[53] = test system: CAKI-1
[54] = test system: HOP-62
[55] = test system: MDA-N
[56] = test system: UACC-62
[57] = test system: HCC 2998
[58] = test system: MCF7
[59] = test system: A498

COc1ccc(-c2cc(-c3cc(F)c(Cl)cc3Cl)on2)cc1OC
GI50 [1]: 5.82 µM (inactive) | GI50 [2]: 29.2 µM (inactive) | GI50 [3]: 1.8 µM (inactive) | GI50 [4]: 15.6 µM (inactive) | GI50 [5]: 34 µM (inactive) | GI50 [6]: 18.7 µM (inactive) | GI50 [7]: 95.9 µM (inactive) | GI50 [8]: 9.51 µM (inactive) | GI50 [9]: 30.1 µM (inactive) | GI50 [10]: 7.93 µM (inactive) | GI50 [11]: 30.8 µM (inactive) | GI50 [12]: 37.2 µM (inactive) | GI50 [13]: 4.61 µM (inactive) | GI50 [14]: 32.4 µM (inactive) | GI50 [15]: 44.6 µM (inactive) | GI50 [16]: 75.5 µM (inactive) | GI50 [17]: 72.3 µM (inactive) | GI50 [18]: 68.1 µM (inactive) | GI50 [19]: 4.48 µM (inactive) | GI50 [20]: 63.8 µM (inactive) | GI50 [21]: 20.1 µM (inactive) | GI50 [22]: 13.3 µM (inactive) | GI50 [23]: 13.2 µM (inactive) | GI50 [24]: > 100 µM (inactive) | GI50 [25]: 11.8 µM (inactive) | GI50 [26]: 33 µM (inactive) | GI50 [27]: 37.1 µM (inactive) | GI50 [28]: 29.9 µM (inactive) | GI50 [29]: 12.5 µM (inactive) | GI50 [30]: 10.1 µM (inactive) | GI50 [31]: > 100 µM (inactive) | GI50 [32]: 5.42 µM | GI50 [33]: 67.1 µM (inactive) | GI50 [34]: 24.9 µM (inactive) | GI50 [35]: 11.4 µM (inactive) | GI50 [36]: 17.4 µM (inactive) | GI50 [37]: 25.9 µM (inactive) | GI50 [38]: 3.96 µM (inactive) | GI50 [39]: 49.5 µM (inactive) | GI50 [40]: 45.3 µM (inactive) | GI50 [41]: 31.2 µM (inactive) | GI50 [42]: 8.07 µM (inactive) | GI50 [43]: 15.6 µM (inactive) | GI50 [44]: 26.2 µM (inactive) | GI50 [45]: 28.9 µM (inactive) | GI50 [46]: 1.16 µM (inactive) | GI50 [47]: 28.3 µM (inactive) | GI50 [48]: 17.1 µM (inactive) | GI50 [49]: 22.5 µM (inactive) | GI50 [50]: 22.4 µM (inactive) | GI50 [51]: 14.3 µM (inactive) | GI50 [52]: 34.7 µM (inactive) | GI50 [53]: 45 µM (inactive) | GI50 [54]: 15.6 µM (inactive) | GI50 [55]: 2.44 µM (inactive)

O=C(O)CCc1nc2cc3ccccc3cc2[nH]c1=O
GI50 [1]: > 100 µM (inactive) | GI50 [2]: > 100 µM (inactive) | GI50 [3]: > 100 µM (inactive) | GI50 [4]: > 100 µM (inactive) | GI50 [5]: > 100 µM (inactive) | GI50 [6]: > 100 µM (inactive) | GI50 [7]: > 100 µM (inactive) | GI50 [8]: > 100 µM (inactive) | GI50 [9]: > 100 µM (inactive) | GI50 [10]: > 100 µM (inactive) | GI50 [11]: > 100 µM (inactive) | GI50 [12]: > 100 µM (inactive) | GI50 [13]: > 100 µM (inactive) | GI50 [14]: > 100 µM (inactive) | GI50 [56]: > 100 µM (inactive) | GI50 [15]: > 100 µM (inactive) | GI50 [57]: > 100 µM (inactive) | GI50 [16]: > 100 µM (inactive) | GI50 [17]: > 100 µM (inactive) | GI50 [18]: > 100 µM (inactive) | GI50 [20]: > 100 µM (inactive) | GI50 [21]: > 100 µM (inactive) | GI50 [22]: > 100 µM (inactive) | GI50 [58]: 65.6 µM (inactive) | GI50 [23]: > 100 µM (inactive) | GI50 [24]: > 100 µM (inactive) | GI50 [25]: > 100 µM (inactive) | GI50 [26]: > 100 µM (inactive) | GI50 [27]: > 100 µM (inactive) | GI50 [28]: > 100 µM (inactive) | GI50 [29]: > 100 µM (inactive) | GI50 [30]: > 100 µM (inactive) | GI50 [31]: > 100 µM (inactive) | GI50 [32]: > 100 µM | GI50 [34]: > 100 µM (inactive) | GI50 [35]: > 100 µM (inactive) | GI50 [36]: > 100 µM (inactive) | GI50 [37]: > 100 µM (inactive) | GI50 [38]: > 100 µM (inactive) | GI50 [39]: > 100 µM (inactive) | GI50 [41]: > 100 µM (inactive) | GI50 [42]: > 100 µM (inactive) | GI50 [43]: > 100 µM (inactive) | GI50 [44]: > 100 µM (inactive) | GI50 [45]: > 100 µM (inactive) | GI50 [46]: > 100 µM (inactive) | GI50 [47]: > 100 µM (inactive) | GI50 [48]: > 100 µM (inactive) | GI50 [49]: > 100 µM (inactive) | GI50 [50]: > 100 µM (inactive) | GI50 [51]: > 100 µM (inactive) | GI50 [59]: > 100 µM (inactive) | GI50 [53]: > 100 µM (inactive) | GI50 [54]: > 100 µM (inactive) | GI50 [55]: > 100 µM (inactive)
